In brackets after ≈: the same amount, converted by molar mass.
How the values were obtained:
[1] = tested on: mycolic acid transfer in Mabs ATCC19977; assay: Metabolic labeling with [14C]acetate; format: cell-based, M. abscessus; details: 2x and 10x MIC
[2] = tested on: Mabs 21
[3] = tested on: M. abscessus 1; assay: MIC in MHB versus 7H9+OADC; format: cell-based
[4] = tested on: equine erythrocytes; assay: Hemolysis assay; details: up to 128 μg/mL, 10 min, room temperature
[5] = tested on: M. abscessus 79; assay: MIC in MHB versus 7H9+OADC; format: cell-based
[6] = tested on: M. avium 101; assay: MIC, Middlebrook medium (7H9 + OADC, 7 days); format: cell-based; details: Mycobacterium avium, 168 h; M. avium 101; read-out: MIC
[7] = tested on: M. abscessus 21; assay: MIC in MHB versus 7H9+OADC; format: cell-based
[8] = tested on: M. chelonae (n = 11) clinical isolates; assay: MIC against rapid-growing NTM clinical isolates; format: cell-based; details: M. chelonae (n = 11)
[9] = tested on: Intracellular Mtb; assay: microbe, parasite or virus in culture; format: cell-based, M. tuberculosis; details: Mycobacterium tuberculosis
[10] = tested on: S. pneumoniae ATCC 49619; assay: MIC, spectrum of activity; format: cell-based; details: Streptococcus pneumoniae, ATCC49619; S. pneumoniae ATCC 49619; read-out: MIC
[11] = tested on: P. aeruginosa ATCC 35151; assay: MIC, spectrum of activity; format: cell-based; details: Pseudomonas aeruginosa, ATCC35151; P. aeruginosa ATCC 35151; read-out: MIC
[12] = tested on: S. aureus ATCC 29213; assay: MIC, spectrum of activity; format: cell-based; details: Staphylococcus aureus, ATCC29213; S. aureus ATCC 29213; read-out: MIC

For `CC12CC3CC(C)(C1)CC(C(=O)Nc1nc4ccc(OC(F)(F)F)cc4s1)(C3)C2` [CRS400226], the “effect on mycolic acid transfer to arabinogalactan and trehalose dimycolates” value [1] was “concentration-dependent inhibition of mycolic acid transfer”, the lung histology ([2]; after 4 weeks of treatment) was “only very mild areas of airway-centric inflammation” and the “reduction of lung CFU compared to the vehicle control” value ([2]; intratracheal 25 mg/kg once daily, 5 days per week, 4 weeks, 5% corn oil/saline emulsion) was 0.64 Log10 CFU. For the same molecule, the tolerability ([2]; up to 4 weeks of treatment, intratracheal 25 mg/kg) was “well tolerated”, the MIC ([3]; M. abscessus 1, 7H9 + OADC (5 mg/mL albumin)) was 8 µg/mL and the MIC ([3]; M. abscessus 1, MHB) was 0.25 µg/mL (≈ 0.589 µM). For the same molecule, the Hemolysis [4] was 128 µg/mL, the MIC ([5]; M. abscessus 79, 7H9 + OADC (5 mg/mL albumin)) was 2 µg/mL and the MIC ([5]; M. abscessus 79, MHB) was 0.25 µg/mL (≈ 0.589 µM). For the same molecule, the MIC [6] was 2 µg/mL, the MIC ([7]; M. abscessus 21, 7H9 + OADC (5 mg/mL albumin)) was 8 µg/mL and the MIC ([7]; M. abscessus 21, MHB) was 0.25 µg/mL (≈ 0.589 µM). For the same molecule, the MIC range [8] was 0.5–0.5 μg/mL, the MIC90 ([8]; Mycobacteroides chelonae, read-out: MIC90) was 0.5 µg/mL (≈ 1.18 µM) and the IC90 [9] was 0.8 µg/mL (≈ 1.88 µM). The MIC [10] was 64 µg/mL (≈ 151 µM), the MIC [11] was > 64 µg/mL and the MIC [12] was > 64 µg/mL.
